# Laboratory results as given in patent US9624280B2 (JANSSEN BIOTECH, INC., priority 2013, dated 2017).
# No end group written: not given here.
# Tests used:
# human Nav1.6 = molecular target: T1, human Nav1.6 (Homo sapiens, UniProt Q9UQD0); format: cell-based
# T1 construct: expressed in transfected cells
# human Nav1.7 = molecular target: T2, human Nav1.7 (Homo sapiens, UniProt Q15858, W1161R); format: cell-based
# T2 construct: expressed in transfected cells
# C57Bl/6 mice = assay: CFA model of inflammatory pain, thermal hyperalgesia (Hargreaves test); format: in vivo; conditions: for Thermal MPE %: CFA model, mice, mean±s.e.m. (n)
# Procedure: Male C57Bl/6 mice (24-26 g), ordered from Charles River and housed individually, were used for this study.
# This box consists of a chamber with a raised glass floor maintained at a constant temperature (27° C.). The thermal nociceptive stimulus originates from a projection bulb light beam below the glass surface. The light beam is aimed at the area between toris (center plantar). The “start” button will turn on the light and start the timer. Movements (such as a sudden withdrawal) of the stimulated paw will trigger the switch to turn off the light and stop the timer. […] If no movement occurs, the bulb will be turned off after 20 seconds (cutoff) to prevent tissue injury. The animals were allowed to habituate on the glass surface for 30-60 minutes before PWL measurement.
# Percent maximum possible effect (MPE %)=(T1−T0)/(Tc−T0)×100%. T0: threshold on day0 (post-CFA, pre-pump); T1: threshold on day1 post pump implantation; Tc: cut-off of the test (20 s for the Hargreaves test and 2 g for the Von Frey test)
# Animals were anesthetized with isoflurane (4% induction and 2% maintenance) and 20 μL of 100% Complete Freund's Adjuvant (CFA; Sigma-Aldrich; Saint Louis, Mo.) was injected into the center plantar area on one hind paw using a 27 gauge needle attached to a 50 μL Hamilton syringe. Carrageenan model: Animals were anesthetized with isoflurane (4% induction and 2% maintenance) and 25 μL of 2% A-carrageenan (Sigma-Aldrich; Saint Louis, Mo.) dissolved in normal saline was injected into the center plantar area on hind paws using an insulin syringe (BD; Franklin Lakes, N.J.).
# Alzet micro-osmotic mini pumps (Durect Corporation Model 1003D and 2001D) were filled and primed per manufacturer's guide. Mice were anesthetized with isoflurane (5% induction; 2% maintenance). Their backs were shaved, wiped down with isopropyl alcohol and povidone iodine, and a small incision was made between the scapulae. Using a pair of forceps or hemostat, a small pocket was formed by spreading the subcutaneous connective tissues apart. The pump was inserted into the pocket with the flow moderator pointing away from the incision. The skin incision was then closed using 7 mm staples and the animals were allowed to recover in their home cages.
# Data are represented as mean±s.e.m. Prism (Graphpad Software Inc., La Jolla, Calif.) was used for graphing and statistical analysis. For comparison of threshold values over time, a two-way ANOVA followed by Bonferroni's multiple comparison test was used with a significance level of p<0.05. Hotplate and MPE % data were analyzed by one-way ANOVA followed by Bonferroni's multiple comparison test.
# [1] = 684 and 1824 μg/day, subcutaneous osmotic mini-pump
# [2] = 228 μg/day/mouse by subcutaneous osmotic mini-pump
# [3] = 1824 μg/day/mouse by subcutaneous osmotic mini-pump
# T1 sequence (Q9UQD0 whole entry): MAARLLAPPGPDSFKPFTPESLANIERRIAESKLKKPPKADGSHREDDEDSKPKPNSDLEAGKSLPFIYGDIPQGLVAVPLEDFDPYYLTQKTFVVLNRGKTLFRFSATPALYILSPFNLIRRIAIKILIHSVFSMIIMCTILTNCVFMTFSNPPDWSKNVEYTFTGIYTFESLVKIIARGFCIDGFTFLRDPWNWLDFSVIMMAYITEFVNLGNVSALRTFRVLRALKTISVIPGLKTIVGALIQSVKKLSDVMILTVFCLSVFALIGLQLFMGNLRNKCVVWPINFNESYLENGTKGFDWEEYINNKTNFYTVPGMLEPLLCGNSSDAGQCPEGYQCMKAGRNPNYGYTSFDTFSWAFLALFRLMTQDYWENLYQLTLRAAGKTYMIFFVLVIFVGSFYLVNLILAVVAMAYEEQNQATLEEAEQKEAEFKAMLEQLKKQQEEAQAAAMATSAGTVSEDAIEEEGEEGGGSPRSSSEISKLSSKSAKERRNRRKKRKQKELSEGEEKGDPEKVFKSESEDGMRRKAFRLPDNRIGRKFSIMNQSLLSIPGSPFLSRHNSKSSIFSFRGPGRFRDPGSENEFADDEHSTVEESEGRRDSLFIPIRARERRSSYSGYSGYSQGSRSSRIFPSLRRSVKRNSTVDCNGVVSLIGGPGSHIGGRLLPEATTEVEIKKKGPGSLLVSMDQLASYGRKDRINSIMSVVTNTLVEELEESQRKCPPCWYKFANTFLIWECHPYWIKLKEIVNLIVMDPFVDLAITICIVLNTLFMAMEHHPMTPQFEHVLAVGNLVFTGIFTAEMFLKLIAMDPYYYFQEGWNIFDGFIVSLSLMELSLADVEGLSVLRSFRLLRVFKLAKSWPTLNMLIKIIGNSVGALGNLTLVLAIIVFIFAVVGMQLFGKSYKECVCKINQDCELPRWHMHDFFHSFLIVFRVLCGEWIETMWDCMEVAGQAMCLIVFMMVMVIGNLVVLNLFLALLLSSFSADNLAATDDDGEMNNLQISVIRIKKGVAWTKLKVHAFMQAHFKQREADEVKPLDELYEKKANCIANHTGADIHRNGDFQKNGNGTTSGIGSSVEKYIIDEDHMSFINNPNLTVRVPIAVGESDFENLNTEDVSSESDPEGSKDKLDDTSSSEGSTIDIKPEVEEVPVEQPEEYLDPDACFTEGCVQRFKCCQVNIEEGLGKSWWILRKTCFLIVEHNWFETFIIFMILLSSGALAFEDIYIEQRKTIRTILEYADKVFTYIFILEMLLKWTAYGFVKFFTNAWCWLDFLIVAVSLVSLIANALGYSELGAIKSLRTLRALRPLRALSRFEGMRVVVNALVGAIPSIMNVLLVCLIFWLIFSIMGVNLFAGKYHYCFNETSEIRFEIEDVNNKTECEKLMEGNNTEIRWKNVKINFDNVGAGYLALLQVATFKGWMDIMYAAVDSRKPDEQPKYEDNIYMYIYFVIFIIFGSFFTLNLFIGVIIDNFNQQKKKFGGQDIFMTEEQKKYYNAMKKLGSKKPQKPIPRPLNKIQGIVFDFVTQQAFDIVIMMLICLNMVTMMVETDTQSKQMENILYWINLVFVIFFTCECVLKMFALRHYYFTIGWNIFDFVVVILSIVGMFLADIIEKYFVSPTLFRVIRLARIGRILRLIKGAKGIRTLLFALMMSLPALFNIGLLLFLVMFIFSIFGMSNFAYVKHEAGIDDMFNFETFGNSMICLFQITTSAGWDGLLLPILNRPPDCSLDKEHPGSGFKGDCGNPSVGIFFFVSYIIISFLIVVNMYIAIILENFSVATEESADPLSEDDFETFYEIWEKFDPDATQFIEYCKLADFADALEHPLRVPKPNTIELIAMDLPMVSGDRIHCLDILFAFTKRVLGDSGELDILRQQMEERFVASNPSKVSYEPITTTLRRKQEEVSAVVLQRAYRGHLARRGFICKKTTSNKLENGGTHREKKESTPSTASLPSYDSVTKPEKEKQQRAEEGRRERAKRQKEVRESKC
Substance,selectivity for Nav1.7 compared to recombinant Protoxin-II (human Nav1.6),IC50 (human Nav1.7) [µM],other results
GPYCQKWMQTCDANRKCCEGFSCRLWCKKKLW-OH (cysteine pairing not given here) [NV1D3586],improved selectivity,,
GPACQKWMQTCDANRKCCEGFSCRLWCKKKLW-OH (cysteine pairing not given here) [NV1D3587],improved selectivity,,
GPGWCGDPGATCGKLRLYCCSGFCDSYTKTCKDKSSAGGGGSAPAPAPAPAPAPAPAPAPAPAPAPAPAPAPGGGGSQCQKWMQTCDRERKCCEGFVCTLWCRKKLW [NV1D3822],,0.0742,
GPCCNCSSKWCRDHSRCCGSAPAPAPAPAPAPAPAPAPAPGSQCQKWMQTCDAERKCCEGFVCRLWCKKKLW [NV1D3262],,0.0892,
GPRCQKWMQTCDAERKCCEGFVCRLWCKKKLW-OH (cysteine pairing not given here) [NV1D2772],improved selectivity,,
GPQCQKWMQTCDRERKCCEGFVCTLWCRKKLWGSAPAPAPAPAPAPAPAPAPAPGSCCNCSSKWCRDHSRCCGR [NV1D3798],,0.0945,
GPQCQKWMQTCDRERKCCEGFVCTLWCRKKLW-OH (cysteine pairing not given here) [NV1D3034],,,reversal of CFA-induced thermal hyperalgesia (C57Bl/6 mice; [1]): completely reversed; Thermal MPE % (C57Bl/6 mice; [2]): 22 ± 6 (6) %; Thermal MPE % (C57Bl/6 mice; [3]): 50 ± 6 (8) %
GPQCQKWMQTCDAERKCCEGFVCRLWCKKKLWGSAPAPAPAPAPAPAPAPAPAPGSCCNCSSKWCRDHSRCCGR [NV1D3259],,0.0549,
GPSHSNTQTLAKAPEHTGAPAPAPAPAPAPAPAPAPAPQCQKWMQTCDRERKCCEGFVCTLWCRKKLW [NV1D3774],,0.0886,
GPCCNCSSKWCRDHSRCCGSAPAPAPAPAPAPAPAPAPAPGSQCQKWMQTCDRERKCCEGFVCTLWCRKKLW [NV1D3795],,0.1,
GPCRTIGPSVCAPAPAPAPAPAPAPAPAPAPQCQKWMQTCDRERKCCEGFVCTLWCRKKLW [NV1D3832],,0.0884,
GPQCQKWMQTCDARRKCCEGFVCRLWCKKKLW-OH (cysteine pairing not given here) [NV1D3006],improved selectivity,,
GPQCQKWMQTCDRERKCCEGFVCTLWCRKKLW-NH-methyl [NV1D3034-NH-methyl],improved selectivity,,Thermal MPE % (C57Bl/6 mice; [3]): 49 ± 17 (6) %; reversal of CFA-induced thermal hyperalgesia (C57Bl/6 mice; dose not given): readily reversed
GPCCNCSSKWCRDHSRCCGRGSAPAPAPAPAPAPAPAPAPAPGSQCQKWMQTCDAERKCCEGFVCRLWCKKKLW [NV1D3260],,0.0576,
GPACQKWMQTCDRNRKCCEGFVCTLWCRKKLW-OH (cysteine pairing not given here) [NV1D3541],improved selectivity,,
GPQCQKWMQTCDRERKCCQGFVCTLWCRKKLW-OH (cysteine pairing not given here) [NV1D3388],improved selectivity,,
GPQCQKWMQTCDRTRKCCEGFVCTLWCRKKLW-OH (cysteine pairing not given here) [NV1D3368],improved selectivity,,reversal of CFA-induced thermal hyperalgesia (C57Bl/6 mice; [1]): fully reversed; Thermal MPE % (C57Bl/6 mice; [2]): 23 ± 8 (7) %; Thermal MPE % (C57Bl/6 mice; [3]): 47 ± 6 (8) %
GPCCNCSSKWCRDHSRCCGSAPAPAPAPAPGSQCQKWMQTCDRERKCCEGFVCTLWCRKKLW [NV1D3796],,0.11,
GPQCQKWMQTCDRERKCCEGFVCTLWCRKKLWGSGGGGSAPAPAPAPAPAPAPAPAPAPGGGGSGSCCNCSSKWCRDHSRCC [NV1D3829],,0.122,
GPYCQKWMQTCDANRKCCEGFSCRLWCKKKLW-NH2 [NV1D3586-NH2],improved selectivity,,

Substance,selectivity for Nav1.7 compared to recombinant Protoxin-II (human Nav1.6),IC50 (human Nav1.7) [µM],other results
GPQCQKWMQTCDRERKCCEGFVCTLWCRKKLWGGGGSAPAPAPAPAPAPAPAPAPAPAPAPAPAPAPGGGGSGWCGDPGATCGKLRLYCCSGFCDAYTKTCKDKSSA [NV1D3825],,0.194,
GPQCQKWMQTCDAERKCCEGFSCTLWCKKKLW-NH2 [NV1D2974-NH2],improved selectivity,,
GPCCNCSSKWCRDHSRCCGRGSAPAPAPAPAPAPAPAPAPAPGSQCQKWMQTCDRERKCCEGFVCTLWCRKKLW [NV1D3793],,0.0646,
GPGWCGDPGATCGKLRLYCCSGFCDAYTKTCKDKSSAGGGGSAPAPAPAPAPAPAPAPAPAPAPAPAPAPAPGGGGSQCQKWMQTCDRERKCCEGFVCTLWCRKKLW [NV1D3824],,0.11,
GPQCQKWMQTCDRTRKCCEGFVCTLWCRKKLW-NH2 [NV1D3368-NH2],improved selectivity,,Thermal MPE % (C57Bl/6 mice; [2]): 27 ± 4 (4) %; Thermal MPE % (C57Bl/6 mice; [3]): 55 ± 15 (6) %; reversal of CFA-induced thermal hyperalgesia (C57Bl/6 mice; dose not given): readily reversed
GPQCQKWMQTCDRERKCCEGFVCTLWCRKKLWGSGGGGSAPAPAPAPAPAPAPAPAPAPGGGGSGSCCNCSSKWCRDHSRCCGR [NV1D3828],,0.0875,
Ac-QCQKWMQTCDAERKCCEGFSCTLWCKKKLW-NH2 [(-GP) N-Ac-NV1D2974-NH2],improved selectivity,,
GPQCQKWMQTCDRERKCCEGFVCTLWCRKKLW-NH-butyl [NV1D3034-NH-butyl],improved selectivity,,
GPQCQKWMQTCDAERKCCEGFVCRLWCKKKLW-NH2 [NV1D2775-NH2],improved selectivity,,
GPQCQKWMQTCDRNRKCCEGFVCTLWCRKKLW-OH (cysteine pairing not given here) [NV1D3044],improved selectivity,,
GPQCQKWMQTCDRERKCCEGFVCTLWCRKKLW-NH2 [NV1D3034-NH2],improved selectivity,,
GPQCQKWMQTCDRERKCCEGFVCTLWCRKKLWGSAPAPAPAPAPGSCCNCSSKWCRDHSRCC [NV1D3799],,0.0506,
GPQCQKWMQSCDRERKCCEGFVCTLWCRKKLW-OH (cysteine pairing not given here) [NV1D3359],improved selectivity,,
GPCCNCSSKWCRDHSRCCGRGSGGGGSAPAPAPAPAPAPAPAPAPAPGGGGSGSQCQKWMQTCDRERKCCEGFVCTLWCRKKLW [NV1D3830],,0.0886,
GPCCNCSSKWCRDHSRCCGRGSAPAPAPAPAPGSQCQKWMQTCDAERKCCEGFVCRLWCKKKLW [NV1D3256],,0.0557,
GPQCQKWMQTCDRERKCCEGFVCTLWCRKKLWGSAPAPAPAPAPAPAPAPAPAPGSCCNCSSKWCRDHSRCC [NV1D3797],,0.0911,
GPQCQKWMQTCDRERKCCEGFVCTLWCRKKLWGSAPAPAPAPAPGSCCNCSSKWCRDHSRCCGR [NV1D3800],,0.0609,
Ac-QCQKWMQTCDRERKCCEGFVCTLWCRKKLW-NH2 [(-GP) N-Ac-NV1D3034-NH2],improved selectivity,,
GPQCQKWMQTCDAERKCCEGFSCTLWCKKKLW-OH (cysteine pairing not given here) [NV1D2974],improved selectivity,,
